# Assay results: publication PMC9150102 (Journal of Medicinal Chemistry, 2022)
# Like-named read-outs stand apart in the source and are kept apart here.
# Key:
# Albino Swiss CD-1 mice = tested on: Albino Swiss CD-1 mice; set-up: method as in PMID 36153005; conditions: i.v. administration; cited from earlier work
# [1] = cited from earlier work
# [2] = target: T1, Na^+/K^+ ATPase-alpha1 isoform purified from dog kidneys (Canis lupus familiaris, UniProt P50997); set-up: method as in PMID 36153005; conditions: cited from earlier work
# T1 construct: excised from 1–3-year-old male beagle dogs; from tissue; host or cells: dog (beagle) kidney outer medulla, Jørgensen purification
# [3] = Acute toxicity (LD50) in mice; conditions: male, Albino Swiss CD-1, mouse, in vivo, po
# Protocol: Acute toxicity (LD50) was preliminarily evaluated in mice following i.v. and oral drug administration.
# Control animals received the vehicle only.
# Drug toxicity studies in mice
# Acute toxicity was determined in CD1 mice. Separate mice groups were either orally treated, or
# intravenously injected, with increasing doses of the tested substance to identify the dose causing 50%
# mortality (LD50). Acute mortality was assessed at 30 min after compound administration; survival was
# [4] = target: T1, Na^+/K^+ ATPase-alpha1 isoform purified from dog kidneys; experiment: Na+/K+ ATPase activity inhibition, purified dog kidney enzyme (32P-ATP hydrolysis); assay type: biochemical
# Protocol: Compounds were tested in a concentration range from 10^–9 to 10^–4 M on a purified renal Na^+/K^+ ATPase preparation with a specific activity of 14 μmol/min/mg protein.
# Figure 2 Na^+/K^+ ATPase activity inhibition in a dog purified enzyme preparation. All compounds were tested in a concentration range from 10^–9 to 10^–4 M in comparison to ouabain.
# The inhibitory effect of compounds was tested at multiple concentrations on Na^+/K^+ ATPase-alpha1 isoform purified from dog kidneys. […]
# Renal Na+/K+ ATPase purification and activity
# Purification of renal Na+/K+ ATPase was performed according to the method of Jørgensen2. Kidneys were excised from 1–3-year-old male beagle dogs, obtained from the General Pharmacology Department of Sigma-tau, Pomezia, Italy, under pentobarbital anesthesia. Kidneys were sliced and the outer medulla was dissected, pooled and suspended (1g in 10 ml) in a sucrose-histidine solution, containing 250 mM sucrose, 30 mM histidine and 5 mM EDTA, pH 7.2 and homogenized. The homogenate was centrifuged at 6,000 g for 15 min, the supernatant was decanted and centrifuged at 48,000 g for 30 min. The pellet was suspended in the sucrose-histidine buffer and incubated for 20 min with a sodium-dodecyl-sulphate (SDS) solution, dissolved in a gradient buffer, containing 25 mM imidazole and 1 mM EDTA, pH 7.5. The sample was layered on the top of a sucrose discontinuous gradient (10, 15 and 29.4%) and centrifuged at 60,000 g for 115 min. The final pellet was suspended in the gradient buffer.
# Na+/K+ ATPase activity was assayed by measuring 32P-ATP hydrolysis, as previously described3.
# Increasing concentrations of the standard ouabain, or tested compound, were incubated with 0.3 μg of purified dog kidney enzyme for 10 min at 37°C in 120 μl final volume of a medium, containing 140 mM NaCl, 3 mM MgCl2, 50 mM Hepes-Tris, 3 mM ATP, pH 7.5. Then, 10 μl of incubation solution containing 10 mM KCl and 20 nCi of 32P-ATP (3-10 Ci/mmol, Perkin Elmer) were added, the reaction continued for 15 min at 37°C and was stopped by acidification with 20% ice-cold perchloric acid.
# 32P was separated by centrifugation with activated Charcoal (Norit A, Serva) and the radioactivity was measured. Effects of increasing concentrations of the tested compound were compared to ouabain, as positive standard, and to vehicle (control) at 37°C. The inhibitory activity was expressed as percent of activity in control. The concentration of compound causing 50% inhibition of the Na+/K+ ATPase activity (IC50) was calculated by non-linear fitting of data points (KaleidagraphTM, Sinergy Software). […]
# SERCA2a = target: T2, SERCA2a (Cavia porcellus, UniProt A0A286XFU8); experiment: SERCA2a ATPase activity, Ca2+ dependency in cardiac SR microsomes from healthy guinea pigs; assay type: biochemical, guinea pig; conditions: for SERCA2a–Ca2+ affinity (KdCa) modulation (words): 10 and 100 nM, healthy guinea pig SR preparations
# T2 construct: from tissue; host or cells: guinea pig left ventricle, SR-enriched microsomes
# T2 sequence (A0A286XFU8 entry or part of it): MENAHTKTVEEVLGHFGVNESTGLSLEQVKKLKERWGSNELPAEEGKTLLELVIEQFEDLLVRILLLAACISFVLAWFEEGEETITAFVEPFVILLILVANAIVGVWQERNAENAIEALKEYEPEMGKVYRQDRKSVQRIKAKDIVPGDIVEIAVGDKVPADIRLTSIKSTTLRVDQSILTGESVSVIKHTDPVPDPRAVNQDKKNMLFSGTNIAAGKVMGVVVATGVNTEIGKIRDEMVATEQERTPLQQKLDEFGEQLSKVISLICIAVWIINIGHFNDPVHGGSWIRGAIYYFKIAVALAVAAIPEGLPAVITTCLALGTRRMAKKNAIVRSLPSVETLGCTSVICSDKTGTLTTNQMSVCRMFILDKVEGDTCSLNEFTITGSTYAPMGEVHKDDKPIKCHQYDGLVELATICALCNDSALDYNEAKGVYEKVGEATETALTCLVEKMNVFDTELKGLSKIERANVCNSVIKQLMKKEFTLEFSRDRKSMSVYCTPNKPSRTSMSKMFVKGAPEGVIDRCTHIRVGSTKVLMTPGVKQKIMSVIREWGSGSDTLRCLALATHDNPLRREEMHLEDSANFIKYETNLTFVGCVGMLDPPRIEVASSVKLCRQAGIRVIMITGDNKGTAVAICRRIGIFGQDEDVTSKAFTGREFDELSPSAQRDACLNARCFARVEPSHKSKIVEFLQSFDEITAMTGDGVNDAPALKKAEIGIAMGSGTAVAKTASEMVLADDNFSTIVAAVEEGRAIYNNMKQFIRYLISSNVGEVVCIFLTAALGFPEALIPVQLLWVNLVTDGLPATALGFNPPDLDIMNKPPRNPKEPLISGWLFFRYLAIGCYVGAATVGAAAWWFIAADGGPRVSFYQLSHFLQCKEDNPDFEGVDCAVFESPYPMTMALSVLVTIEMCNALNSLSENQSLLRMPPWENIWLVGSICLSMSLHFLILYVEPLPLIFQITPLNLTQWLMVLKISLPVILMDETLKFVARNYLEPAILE
# Protocol: SERCA2a ATPase activity was assessed in SR preparations from healthy guinea pig hearts. Ca^2+ dependency of ATPase activity was measured, and kinetic parameters (KdCa and Vmax) were estimated at compound concentrations of 10 and 100 nM.
# […] […] Data are the mean ± SEM. *p < 0.05 (one-way RM ANOVA plus post hoc Tukey’s multiple comparisons or paired t-test).
# Measurements were performed in cardiac SR microsomes (guinea pig) and in whole tissue homogenates (rat). Cardiac preparations included SERCA2a and PLN. To test for PLN involvement in the effect of compounds, SERCA1 activity was measured in PLN-free microsomes (from guinea pig skeletal muscle) before and after reconstitution with the synthetic PLN1–32 inhibitory fragment at a ratio of 300:1 for PLN/SERCA. […] Either an increase in Vmax (rat) or a decrease in KdCa (increased Ca^2+ affinity) (guinea pig) stands for enhancement of SERCA function. […]
# Left ventricles (LV) were dissected from rat and guinea -pig of healthy and failing preparations and frozen until use. Tissues were homogenized, subjected to centrifugation to obtain SR -enriched microsomes and sarcomeric proteins were extracted, as previously described 4.
# (§1) In the case of guinea-pig hearts, LV tissues were homogenized in 4 volumes of 10 mM NaHCO3, 1 mM PMSF, 10 μg/ml aprotinin and leupeptin (pH 7) and centrifuged at 12,000g for 15 minutes. Supernatants were filtered and centrifuged at 100,000 g for 30 min. Contractile proteins were extracted by suspending the pellets with 0.6 M KCl, 30 mM histidine, pH 7 and further centrifugation at 100,000 g for 30 min.
# (§2) Final pellets were reconstituted with 0.3 M sucrose, 30 mM histidine, pH 7, to obtain SR-enriched […]
# SERCA2a ATPase activity was measured as the rate of 32P-ATP release at multiple Ca2+ concentrations (100-2000 nM) in the absence and presence of tested compounds, as previously described5. Increasing concentrations of each compound were pre-incubated with 2 μg of cardiac preparations for 5 min at 4° C in 80 μl of a solution containing 100 mM KCl, 5 mM MgCl2, 1 μM A23187, 20 mM Tris, pH 7.5. Then, 20 μl of 5 mM Tris-ATP containing 50 nCi of 32P-ATP (3-10 Ci/mmol, Perkin Elmer) were added. The ATP hydrolysis was continued for 15 min at 37°C and the reaction was stopped by acidification with 100 μl of 20% ice-cold perchloric acid. 32P was separated by centrifugation with activated charcoal (Norit A, Serva) and the radioactivity was measured. SERCA2a-dependent ATPase activity was identified as the portion of total hydrolytic activity inhibited by cyclopiazonic acid (CPA, 10 µM). Technical replicates were used to ensure the reliability of single values. […]
# STZ diabetic rats = tested on: STZ diabetic rats; set-up: method as in PMID 36153005; conditions: cited from earlier work
# [5] = tested on: SERCA1 reconstituted with PLN1–32 fragment; experiment: SERCA1 ATPase activity after reconstitution with PLN1-32 fragment; assay type: biochemical, guinea pig; conditions: PLN/SERCA 300:1
# Protocol: Data are the mean ± SEM. *p < 0.05 (one-way RM ANOVA plus post hoc Tukey’s multiple comparisons or paired t-test).
# Measurements were performed in cardiac SR microsomes (guinea pig) and in whole tissue homogenates (rat). Cardiac preparations included SERCA2a and PLN. To test for PLN involvement in the effect of compounds, SERCA1 activity was measured in PLN-free microsomes (from guinea pig skeletal muscle) before and after reconstitution with the synthetic PLN1–32 inhibitory fragment at a ratio of 300:1 for PLN/SERCA. […] Either an increase in Vmax (rat) or a decrease in KdCa (increased Ca^2+ affinity) (guinea pig) stands for enhancement of SERCA function.
# (rats). As verified by Western blot, cardiac microsomes preparations included SERCA2a and PLN and skeletal muscle ones included SERCA1 only.
# SERCA stimulation4, compounds were also tested on SERCA1 in microsomes of guinea-pig skeletal muscle (PLN-free) before and after reconstitution with the PLN1-32 inhibitory fragment at a ratio of 300:1 […]
# Tissues were homogenized, subjected to centrifugation to obtain SR -enriched microsomes and sarcomeric proteins were extracted, as previously described 4.
# as §1, §2
# SERCA2a ATPase activity was measured as the rate of 32P-ATP release at multiple Ca2+ concentrations (100-2000 nM) in the absence and presence of tested compounds, as previously described5. Increasing concentrations of each compound were pre-incubated with 2 μg of cardiac preparations for 5 min at 4° C in 80 μl of a solution containing 100 mM KCl, 5 mM MgCl2, 1 μM A23187, 20 mM Tris, pH 7.5. Then, 20 μl of 5 mM Tris-ATP containing 50 nCi of 32P-ATP (3-10 Ci/mmol, Perkin Elmer) were added. The ATP hydrolysis was continued for 15 min at 37°C and the reaction was stopped by acidification with 100 μl of 20% ice-cold perchloric acid. 32P was separated by centrifugation with activated charcoal (Norit A, Serva) and the radioactivity was measured. SERCA2a-dependent ATPase activity was identified as the portion of total hydrolytic activity inhibited by cyclopiazonic acid (CPA, 10 µM). Technical replicates were used to ensure the reliability of single values.
# Reconstitution of SERCA1 with PLN1-32 synthetic fragment
# Adult healthy male guinea-pigs were used to prepare SERCA1-enriched SR microsomes from fast-twitch hind leg muscles. Microsomes were prepared as described for SERCA2a preparations. For reconstitution experiments, SERCA1 (PLN-free) was pre-incubated with synthetic PLN1-32 fragment (canine sequence, Biomatik Corporation, Canada) in 20 mM imidazole, pH 7, at 1:300 SERCA1:PLN ratio for 30 min at room temperature. After pre-incubation, SERCA1 (PLN-free) alone, or reconstituted with PLN1-32 […]
# fragment, was utilized for SERCA activity measurement by using 32P-ATP hydrolysis method at different
# [6] = target: skeletal SERCA1 (sarcoplasmic reticulum calcium ATPase 1) (guinea pig (endogenous in skeletal muscle))
# [7] = read-out: NKA Inhibition (IC50 µM)
compound,measurement,setting,value
C[C@]12CCC(=NOCCN)C[C@@H]1C(=O)C[C@@H]1[C@@H]2CC[C@]2(C)C(=O)CC[C@@H]12 (mixture of isomers) [istaroxime],LD50,Albino Swiss CD-1 mice,23 mg/kg
same,half-life,[1],~1 h
same,IC50,[2]; dog renal preparations,0.14 µM
same,LD50 at 24 h,[3],200 mg/kg
C[C@]12CC/C(=C\CCC(=O)O)C[C@@H]1[C@@H](O)C[C@@H]1[C@@H]2CC[C@]2(C)C(=O)CC[C@@H]12 [Compound 1],IC50,[4],> 100 µM
same,SERCA2a Stimulation @100 nM (DELTA% KdCa),SERCA2a; 100 nM,-15%
same,SERCA2a KdCa reduced by,"SERCA2a; 100 nM, guinea pig preparation",15%
C[C@]12CC/C(=C/CCC(=O)O)C[C@@H]1[C@@H](O)C[C@@H]1[C@@H]2CC[C@]2(C)C(=O)CC[C@@H]12 [Compound 2],IC50,[4],> 100 µM
same,SERCA2a–Ca2+ affinity (KdCa) modulation (words),SERCA2a,inactive
C[C@]12CC/C(=C\CCC(=O)O)C[C@@H]1[C@H](O)C[C@@H]1[C@@H]2CC[C@]2(C)C(=O)CC[C@@H]12 [Compound 3],SERCA2a–Ca2+ affinity (KdCa) modulation (words),SERCA2a,inactive
same,SERCA2a–Ca2+ affinity (KdCa) modulation (words),SERCA2a; listed as compound 3,only a trend to SERCA2a KdCa reduction
C[C@]12CC/C(=C/CCC(=O)O)C[C@@H]1[C@H](O)C[C@@H]1[C@@H]2CC[C@]2(C)C(=O)CC[C@@H]12 [Compound 4],IC50,[4],> 100 µM
same,SERCA2a–Ca2+ affinity (KdCa) modulation (words),SERCA2a,inactive
C[C@]12CC[C@H](CCCC(=O)O)C[C@@H]1[C@H](O)C[C@@H]1[C@@H]2CC[C@]2(C)C(=O)CC[C@@H]12 [Compound 6],IC50,[4],> 100 µM
same,SERCA2a Stimulation @100 nM (DELTA% KdCa),SERCA2a; 100 nM,-23%
CCOC(=O)CCC[C@H]1CC[C@@]2(C)[C@H](C1)[C@@H](O)C[C@@H]1[C@@H]2CC[C@]2(C)C(=O)CC[C@@H]12 [Compound 7],IC50,[4]; [7],> 100 µM
same,SERCA2a Stimulation @100 nM (DELTA% KdCa),SERCA2a; 100 nM,-23%
C[C@]12CC[C@H](CC(=O)O)C[C@@H]1[C@H](O)C[C@@H]1[C@@H]2CC[C@]2(C)C(=O)CC[C@@H]12 [Compound 9],SERCA2a–Ca2+ affinity (KdCa) modulation (words),SERCA2a,inactive
CCOC(=O)C[C@H]1CC[C@@]2(C)[C@H](C1)[C@@H](O)C[C@@H]1[C@@H]2CC[C@]2(C)C(=O)CC[C@@H]12 [Compound 10],IC50,[4],> 100 µM
same,SERCA2a Stimulation @100 nM (DELTA% KdCa),SERCA2a; 100 nM,-26%
C[C@]12CC[C@H](CCCCCC(=O)O)C[C@@H]1[C@@H](O)C[C@@H]1[C@@H]2CC[C@]2(C)C(=O)CC[C@@H]12 [Compound 11],IC50,[4]; [7],> 100 µM
same,SERCA2a Stimulation @100 nM (DELTA% KdCa),SERCA2a; 100 nM,-20%
same,SERCA2a–Ca2+ affinity (KdCa) modulation (words),SERCA2a,slightly less active
CCOC(=O)CCCCC[C@H]1CC[C@@]2(C)[C@H](C1)[C@@H](O)C[C@@H]1[C@@H]2CC[C@]2(C)C(=O)CC[C@@H]12 [Compound 12],IC50,[4]; [7],> 100 µM
same,SERCA2a–Ca2+ affinity (KdCa) modulation (words),SERCA2a,slightly less active
"C[C@]12CC/C(=N\OCC(=O)O)C[C@@H]1[C@H](O)C[C@@H]1[C@@H]2CC[C@]2(C)C(=O)CC[C@@H]12 [PST3093, reference compound]",half-life,[1],~10 h
same,SERCA2a KdCa reduced by,SERCA2a; 1 nM,18%
same,SERCA2a KdCa change,"SERCA2a; 100 nM, guinea pig microsomal preparations",−25%
same,SERCA2a KdCa reduced by,"SERCA2a; 100 nM, guinea pig preparation",25%
same,activity against Na+/K+ ATPase,[2],inactive
same,LD50 at 24 h,[3],> 200 mg/kg
same,systolic indexes,STZ diabetic rats,improved systolic indexes
"PLN1–32 fragment: synthetic PLN1-32 inhibitory fragment of phospholamban (canine sequence, Biomatik) (MEKVQYLTRSAIRRASTIEMPQQARQKLQNLF) [reference compound]",SERCA1 KdCa increased by (reconstitution with PLN1–32),[5],23–25%
synthetic PLN(1-32) inhibitory fragment of phospholamban (from UniProt P26678 1-32) (peptide),"increase of KdCa (Ca2+ dependency of SERCA1 ATPase activity, 32P-ATP, 37 °C) after reconstitution of skeletal muscle microsomes with PLN(1-32) at 300:1 PLN/SERCA; Vmax not affected",[6],23 to 25%
